# Test results: US20190202774A1, “BIARYL COMPOUNDS AS ANTIMICROBIAL AND CHEMOTHERAPEUTIC AGENTS” (priority 2015, published 2019)
# Entries after “also recorded” stand apart in the source; their conditions may differ. Structures can show the parent of a compound that is named as a salt. Where two headings read alike, the source gives them in different places.
# How the values were obtained:
# MRSA strain USA300 [1] = experiment: DiSC3(5) membrane permeabilization; type: cell-based, Staphylococcus aureus; details: positive control, 100 nM
# Procedure: Biaryl compounds and their analogues have been reported to be membrane active agents (Isnansetyo and Kamei, 2003 and Kamei et al., 2003). An experiment was performed to verify the membrane permeabilization activity of biaryl compound. C58 using a fluorescent dye, 3,3′-Dipropylthiacarbocyanine iodide (DiSC3(5)). The fluorescence signal from DiSC3(5) is in a quenched state when it interacts with the hydrophobic region of the cell membrane. Upon disruption of the membrane, DiSC3(5) is released and regains its fluorescent activity, which is measured as a fluorescence signal (RFU).
# A549 = experiment: Lung cancer cell survival, A549; type: cell-based; details: 72 hour incubation, non-linear curve fit
# Procedure: (§1) The IC50 values generated using a non-linear curve fit with lung cancer cell lines, A549, H460, H2122, and H2073 are listed in Table 10. Experiments were performed using C58, C58-2, C59, C59-2, C119, and acetylated C119 (C119-2). […] Additionally, these concentrations are clinically achievable for treatment of lung cancer and a detailed structure activity relationship experiments needs to be performed to identify promising anticancer candidates.
# H460 = experiment: Lung cancer cell survival, H460; type: cell-based; details: 72 hour incubation, non-linear curve fit
# Procedure: as §1
# H2073 = experiment: Lung cancer cell survival, H2073; type: cell-based; details: 72 hour incubation, non-linear curve fit
# Procedure: as §1
# H2122 = experiment: Lung cancer cell survival, H2122; type: cell-based; details: 72 hour incubation, non-linear curve fit
# Procedure: as §1
# [2] = system: human lung airway epithelial cells (16HBE); details: 24-h incubation, non-linear curve fit
# Procedure: Finally, toxicity of biaryl compounds was tested against human lung airway epithelial cells (16HBE), human dermal fibroblasts, and J774.A1 murine macrophages using an ALAMARBLUE® Cell Viability Assay. Biaryl compounds, C58, acetylated C58 (C58-2), C59, C59-2, C59Na, and C59Li were incubated with cells for 24 hours and an ALAMARBLUE® Cell Viability Assay was performed to determine cell viability relative to untreated controls (FIGS. 13A-13C). Cell viability curves were analyzed using non-linear curve fit to yield the inhibitory concentration at median cell survival (LD50) for all cell lines (Table 3).
# Next, the toxicity of lead candidates was tested against human lung airway epithelial cells (16HBE) and human dermal fibroblasts (HDF) using an alamarBlue® Cell Viability Assay.
# [3] = system: erythrocytes from sheep blood; experiment: Hemolytic activity
# Procedure: Toxicity of biaryl compounds was tested against erythrocytes as well as eukaryotic epithelial, dermal, and macrophage cell lines in vitro.
# Toxicity of lead antimicrobial candidates was tested against erythrocytes, as well as eukaryotic epithelial and dermal cell lines in vitro.
# [4] = system: MRSA strains USA300, 0606, 0608, 0634, 0641, and 0646; experiment: MIC/MBC against six MRSA strains (variants of C58/C59, pH, DMSO); type: cell-based, Staphylococcus aureus
# Procedure: Six MRSA strains, USA300, 0606, 0608, 0634, 0641, and 0646 were chosen based on their activity against biaryl compounds and vancomycin to determine structure-activity relationship of biaryl compounds. The effect of phenolic group on the activity of biaryl compounds was tested by modifying C59. First, the phenolic group was protected by acetylation to yield an acetylated C59 (C59-2) (FIG. 7B). Additional variants of C59, in the form of sodium and lithium salts were synthesized by incubation with sodium hydroxide and lithium hydroxide (FIGS. 7C and 7D). Antimicrobial activity of these deprotonated, water-soluble sodium (C59Na) and lithium (C59Li) salts, and acetylated derivative of C59 was tested against 6 MRSA strains and compared to the parent compound, C59 (FIGS. 8A-8D). Results from this comparative experiment indicate the contribution of phenolic group/phenoxide ion to the antimicrobial activity.
# Further investigation into activity of these compounds under acidic pH conditions also points towards the role of phenolic group. An effective antimicrobial should be active under a wide range of pH conditions, including the physiological pH of 7.4. Localized pH in an infection is often lower than the physiological pH, and may be as low as 5.5 (Radovic-Moreno et al., 2012). Additionally, pH varies among organs (Radovic-Moreno et al., 2012). For example, pH in the bladder or on the skin is found to be between 4.5 and 8.0, or 4.0 and 5.5, respectively (Radovic-Moreno et al., 2012). […] The activity of all biaryl compounds is enhanced by at least four- to eight-fold with reduction in pH from 7.4 to 5.5.
# Water soluble sodium and lithium salts of C59 (C59Na and C59Li) and their antimicrobial activity against six MRSA strains are reported above. A sodium salt of C58 (C58Na) was prepared and evaluated efficacy of this compound against these six MRSA strains. […] The poor activity of C58Na may be a result of poor stability of C58Na compared with C59Na and C59Li.
# [5] = system: R. equi strains 701+, 701−, 703, and 5331; experiment: MIC/MBC broth microdilution against R. equi; type: cell-based, Rhodococcus equi
# 38 MRSA strains [6] = system: 38 MRSA strains
# 38 MRSA strains [7] = experiment: microbe, parasite or virus in culture; details: Staphylococcus aureus
# MRSA strain USA300 [8] = experiment: Kill kinetics with planktonic log-phase MRSA; type: cell-based, Staphylococcus aureus; details: log-phase USA300, 24 hours
# [9] = system: E. faecalis strains 49532 and 51575; experiment: MIC/MBC broth microdilution against E. faecalis; type: cell-based, Enterococcus faecalis; details: Enterococcus faecalis
# [10] = system: MRSA strains USA300 and SALL06; experiment: Kill kinetics with stationary-phase MRSA; type: cell-based, Staphylococcus aureus
# [11] = system: seven S. pneumoniae strains; experiment: MIC/MBC against panel of S. pneumoniae strains; type: cell-based; details: Streptococcus pneumoniae
# Procedure: The activity of compounds against Gram-positive pathogens, S. pyogenes and S. pneumoniae, identified through the preliminary screen (FIG. 15) was evaluated against a panel of these pathogens.
# [12] = system: 21 S. epidermidis strains; experiment: MIC90/MBC90 broth microdilution against 21 S. epidermidis strains; type: cell-based, Staphylococcus epidermidis; details: Staphylococcus epidermidis
# Description: We are currently in the process of evaluating the MICs and MBCs for 5-32.
# [13] = system: MRSA strains SAD05 and 0632 in a biofilm; experiment: MBEC High-throughput biofilm assay; type: cell-based, Staphylococcus aureus; details: 6 hours
# [14] = read-out: MBC90, 38 MRSA strains, MH broth
smiles,measurement,setting,value
"O=C(Nc1ccc(Cl)c(Cl)c1)c1cc(Cl)cc(Cl)c1O [3,3′,4′,5-tetrachlorosalicylanilide, reference compound]",membrane disruption (DiSC3(5) fluorescence),MRSA strain USA300 [1],positive membrane disruption
CC(=O)Oc1c(Br)cc(Br)cc1-c1cc(Br)cc(Br)c1OC(C)=O [C58-2],A549 LD50,A549,74 µM
same,H460 LD50,H460,51 µM
same,H2073 LD50,H2073,36 µM
same,H2122 LD50,H2122,87 µM
[Na+].[Na+].[O-]c1c(Br)cc(Br)cc1-c1cc(Br)cc(Br)c1[O-] [C58Na],16HBE LD50,[2],92.3 µg/mL
same,onset of hemolysis,[3],32 to 48 µg/mL
same,activity in the absence of DMSO versus with 2.5% DMSO,[4],at least comparable activity
same,antimicrobial activity (MIC and MBC) compared to the parent compound,[4],poor activity
CC(=O)Oc1c(Cl)cc(Cl)cc1-c1cc(Cl)cc(Cl)c1OC(C)=O [C59-2],A549 LD50,A549,74 µM
same,H460 LD50,H460,73 µM
same,H2073 LD50,H2073,45 µM
same,H2122 LD50,H2122,99 µM
same,MBC,[5]; strain 701+,16 µg/mL
same,MIC,[5]; strain 701+,4 µg/mL
same,MBC,[5]; strain 701−,16 µg/mL
same,MIC,[5]; strain 701−,4 µg/mL
same,MBC,[5]; strain 703,16 µg/mL
same,MIC,[5]; strain 703,2 µg/mL
same,MBC,[5]; strain 5331,16 µg/mL
same,MIC,[5]; strain 5331,4 µg/mL
same,antimicrobial activity (MIC and MBC) compared to the parent compound,[4],Reduction of activity
[Li+].[Li+].[O-]c1c(Cl)cc(Cl)cc1-c1cc(Cl)cc(Cl)c1[O-] [C59Li],16HBE LD50,[2],24.4 µg/mL
same,activity in the absence of DMSO versus with 2.5% DMSO,[4],at least comparable activity
same,antimicrobial activity (MIC and MBC) compared to the parent compound,[4],enhanced activity; also recorded: superior activity over C59
Nc1c(-c2c(O)ccc3ccccc23)cc(Cl)c(Cl)c1Cl [C119],A549 LD50,A549,52 µM
same,H460 LD50,H460,37 µM
same,H2073 LD50,H2073,33 µM
same,H2122 LD50,H2122,58 µM
CCC[C@@H]1C[C@@H](C(=O)N[C@@H]([C@H]2O[C@H](SC)[C@H](O)[C@@H](O)[C@H]2O)[C@H](C)Cl)N(C)C1 [Clindamycin hydrochloride],MBC90,"38 MRSA strains [6]; MH broth, hydrochloride",>32 µg/mL
same,MIC90,"38 MRSA strains [6]; MH broth, hydrochloride",>32 µg/mL
same,MIC90,"38 MRSA strains [7]; 38 MRSA strains, MH broth",≥ 32 µg/mL
same,MBC,38 MRSA strains [7]; [14],≥ 32 µg/mL
CCCCCCCCCC(=O)N[C@@H](Cc1c[nH]c2ccccc12)C(=O)N[C@H](CC(N)=O)C(=O)N[C@@H](CC(=O)O)C(=O)N[C@@H]1C(=O)NCC(=O)N[C@@H](CCCN)C(=O)N[C@@H](CC(=O)O)C(=O)N[C@H](C)C(=O)N[C@@H](CC(=O)O)C(=O)NCC(=O)N[C@H](CO)C(=O)N[C@@H]([C@H](C)CC(=O)O)C(=O)N[C@@H](CC(=O)c2ccccc2N)C(=O)O[C@@H]1C [Daptomycin hydrochloride],MBC90,38 MRSA strains [6]; MH broth,>32 µg/mL
same,MBC90,38 MRSA strains [6]; cation adjusted MH broth,2 µg/mL
CC(=O)NC[C@H]1CN(c2ccc(N3CCOCC3)c(F)c2)C(=O)O1 [Linezolid],MIC90,"38 MRSA strains [7]; 38 MRSA strains, MH broth",4 µg/mL
same,MBC,38 MRSA strains [7]; [14],> 32 µg/mL
"CO[C@H]1/C=C/O[C@@]2(C)Oc3c(C)c(O)c4c(O)c(c(/C=N/N5CCN(C)CC5)c(O)c4c3C2=O)NC(=O)/C(C)=C\C=C\[C@H](C)[C@H](O)[C@@H](C)[C@@H](O)[C@@H](C)[C@H](OC(C)=O)[C@@H]1C [Rifampicin, reference compound]",MBC,"[5]; Rhodococcus (subgen. Prescottella) equi, strain 701+, read-out: MBC",> 192 µg/mL
same,MIC,"[5]; Rhodococcus (subgen. Prescottella) equi, strain 701+, read-out: MIC",0.5 µg/mL
same,MBC,"[5]; Rhodococcus (subgen. Prescottella) equi, strain 701−, read-out: MBC",> 192 µg/mL
same,MIC,"[5]; Rhodococcus (subgen. Prescottella) equi, strain 703",0.125 µg/mL
same,MBC,"[5]; Rhodococcus (subgen. Prescottella) equi, strain 703, read-out: MBC",80 µg/mL
same,MIC,"[5]; Rhodococcus (subgen. Prescottella) equi, strain 5331",0.125 µg/mL
same,MBC,"[5]; Rhodococcus (subgen. Prescottella) equi, strain 5331, read-out: MBC",32 µg/mL
same,MIC,[5]; strain 701−,0.5 µg/mL
"CN[C@H](CC(C)C)C(=O)N[C@H]1C(=O)N[C@@H](CC(N)=O)C(=O)N[C@H]2C(=O)N[C@H]3C(=O)N[C@H](C(=O)N[C@H](C(=O)O)c4cc(O)cc(O)c4-c4cc3ccc4O)[C@H](O)c3ccc(c(Cl)c3)Oc3cc2cc(c3O[C@@H]2O[C@H](CO)[C@@H](O)[C@H](O)[C@H]2O[C@H]2C[C@](C)(N)[C@H](O)[C@H](C)O2)Oc2ccc(cc2Cl)[C@H]1O [Vancomycin hydrochloride, reference compound]",dose response of bacterial eradication,MRSA strain USA300 [8],absence of dose response
same,MBC,[9]; strain 49532,> 512 µg/mL
same,MIC,[9]; strain 49532,1 µg/mL
same,MBC,[9]; strain 51575,> 192 µg/mL
same,MIC,[9]; strain 51575,192 µg/mL
same,bacterial counts versus untreated controls,"[10]; at 24 hours, 0.5-2.0",no difference
same,eradication of stationary-phase bacteria,"[10]; stationary-phase USA300 and SALL06, up to 24 hours",fails to eradicate the bacterial burden completely
same,MBC,[11]; read-out: MBCs,0.25 to 0.5 µg/mL
same,MIC,[11]; read-out: MICs,0.25 to 0.5 µg/mL
same,MIC90,[12],4 µg/mL
same,MBC,[12]; read-out: MBC90,8 µg/mL
same,activity against biofilm mode bacteria,[13],Lack of activity
same,MIC90,38 MRSA strains [7],2 µg/mL
same,MBC,38 MRSA strains [7]; read-out: MBC90,16 µg/mL
same,change of activity with reduction in pH from 7.4 to 5.5,"[4]; pH 7.4, 6.5, 5.5",does not exhibit any improvement
